Results: US20250179032A1, “HETEROCYCLIC INHIBITORS OF GLUT9 FOR TREATMENT OF DISEASE” (HORIZON THERAPEUTICS IRELAND DAC, priority 2022, published 2025)
Read-outs that look alike come from different tables or passages of the source.

Target: T1, H. sapiens SLC2A9 variant 2 (GLUT9B) (Homo sapiens, UniProt Q9NRM0)
T1 sequence (Q9NRM0 1-511 isoform Q9NRM0-2): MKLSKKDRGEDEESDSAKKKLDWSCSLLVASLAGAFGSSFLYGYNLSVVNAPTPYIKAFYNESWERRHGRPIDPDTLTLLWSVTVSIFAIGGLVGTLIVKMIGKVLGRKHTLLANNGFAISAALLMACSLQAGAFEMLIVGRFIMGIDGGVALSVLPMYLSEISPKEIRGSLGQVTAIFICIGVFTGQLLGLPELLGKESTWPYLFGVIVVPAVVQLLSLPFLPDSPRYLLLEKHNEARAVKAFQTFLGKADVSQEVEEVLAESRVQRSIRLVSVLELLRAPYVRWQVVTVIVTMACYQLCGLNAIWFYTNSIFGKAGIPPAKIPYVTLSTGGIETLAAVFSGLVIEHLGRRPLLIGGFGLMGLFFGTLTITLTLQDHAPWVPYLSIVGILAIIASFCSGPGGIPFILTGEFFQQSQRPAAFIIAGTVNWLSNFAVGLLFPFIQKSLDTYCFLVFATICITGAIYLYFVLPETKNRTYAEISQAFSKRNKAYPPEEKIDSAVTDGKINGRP
Experiment: GLUT9 functional assay: uric acid uptake in HEK293T cells, allantoin formation by MS/MS as proxy of GLUT9B inhibition
Assay type: cell-based
Details: HEK293T cells stably expressing GLUT9B and transiently A. oryzae uricase, uric acid 0.3 mM, 37° C.
How it was run: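 HEK293T cells stably expressing human GLUT9B and transiently expressing A. oryzae uricase, exposed across a 12-point curve to 0.3 mM uric acid (Km) in sodium gluconate buffer pH 7.4 for 15 or 60 min at 37° C. Allantoin in lysates quantified by RapidFire MS/MS (positive ion) against a matrix-matched standard curve as proxy for uptake.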

[1] = 15 minute assay, read-out: 15 min IC50
[2] = 60 minute assay, read-out: 60 min IC50

SMILES | IC50 [1] [nM] | IC50 [2] [nM]
O=c1[nH]c(C2CCN(c3nc(CCC(F)(F)F)cnc3-c3cc(F)c4occc4c3)CC2)no1 [Compound 146, 3-(1-(3-(7-fluorobenzofuran-5-yl)-6-(3,3,3-trifluoropropyl)pyrazin-2-yl)piperidin-4-yl)-1,2,4-oxadiazol-5(4H)-one] | < 500 | 
COCCCCc1cnc(-c2ccc3occc3c2)c(N2CCC(C(=O)O)CC2)n1 [Compound 138, 1-(3-(benzofuran-5-yl)-6-(4-methoxybutyl)pyrazin-2-yl)piperidine-4-carboxylic acid] | < 500 | < 500
COCCCc1cnc(-c2cc(F)c3occc3c2)c(N2CCC(C)(C(=O)O)CC2)n1 [Compound 184, 1-(3-(7-fluorobenzofuran-5-yl)-6-(3-methoxypropyl)pyrazin-2-yl)-4-methylpiperidine-4-carboxylic acid] |  | < 500
Fc1cc(-c2ncc(COCC(F)(F)F)nc2N2CCC(c3nn[nH]n3)CC2)cc2ccoc12 [Compound 65, 3-(4-(2H-tetrazol-5-yl)piperidin-1-yl)-2-(7-fluorobenzofuran-5-yl)-5-((2,2,2-trifluoroethoxy)methyl)pyrazine] | < 500 | 
COCCCc1cnc(-c2cnc3ccccc3c2)c(N2CCC(C(=O)O)CC2)n1 [Compound 199, 1-(6-(3-methoxypropyl)-3-(quinolin-3-yl)pyrazin-2-yl)piperidine-4-carboxylic acid] |  | > 2000
O=C(O)C1C2CC1CN(c1nc(CCC(F)(F)F)cnc1-c1cc(F)c3occc3c1)C2 (centres unmarked) [Compound 94, 3-(3-(7-fluorobenzofuran-5-yl)-6-(3,3,3-trifluoropropyl)pyrazin-2-yl)-3-azabicyclo[3.1.1]heptane-6-carboxylic acid] | 500 to 2000 | 
COCCCc1cnc(-c2cnc3sccc3c2)c(N2CCC(C(=O)O)CC2)n1 [Compound 210, 1-(6-(3-methoxypropyl)-3-(thieno[2,3-b]pyridin-5-yl)pyrazin-2-yl)piperidine-4-carboxylic acid] |  | 500 to 2000
COCCCc1cnc(-c2cc(F)c3sccc3c2)c(N2CCC(C(=O)O)CC2)n1 [Compound 225, 1-(3-(7-fluorobenzo[b]thiophen-5-yl)-6-(3-methoxypropyl)pyrazin-2-yl)piperidine-4-carboxylic acid] |  | < 500
CCCCc1cnc(-c2ccc3c(c2)CC(C)(C)O3)c(N2CCC(C(=O)O)CC2)n1 [Compound 79, 1-(6-butyl-3-(2,2-dimethyl-2,3-dihydrobenzofuran-5-yl)pyrazin-2-yl)piperidine-4-carboxylic acid] | > 2000 | 
COCCCc1cnc(-c2ccnc3[nH]ccc23)c(N2CCC(C(=O)O)CC2)n1 [Compound 194, 1-(6-(3-methoxypropyl)-3-(1H-pyrrolo[2,3-b]pyridin-4-yl)pyrazin-2-yl)piperidine-4-carboxylic acid] |  | > 2000
O=C(O)C1CCN(c2nc(CCCCC(F)(F)F)cnc2-c2ccc3c(c2)OCO3)CC1 [Compound 132, 1-(3-(benzo[d][1,3]dioxol-5-yl)-6-(5,5,5-trifluoropentyl)pyrazin-2-yl)piperidine-4-carboxylic acid] | < 500 | 
CCCCc1cnc(-c2ccc(OC)cc2)c(-c2ccc(C(=O)O)cn2)c1 [Compound 24, 5′-butyl-2′-(4-methoxyphenyl)-[2,3′-bipyridine]-5-carboxylic acid] | > 2000 | 
CCCCc1cnc(-c2ccc(OC)s2)c(N2CCC(C(=O)O)CC2)n1 [Compound 43, 1-(6-butyl-3-(5-methoxythiophen-2-yl)pyrazin-2-yl)piperidine-4-carboxylic acid] | > 2000 | 
CCCCc1cnc(-c2ccc(OC)cc2)c(-c2ccc3c(C(=O)O)c[nH]c3c2)c1 [Compound 39, 6-(5-butyl-2-(4-methoxyphenyl)pyridin-3-yl)-1H-indole-3-carboxylic acid] | < 500 | 
COCCCc1cnc(-c2cc(F)c3c(c2)OCO3)c(N2CCCC(C(=O)O)CC2)n1 (centres unmarked) [Compound 244, 1-(3-(7-fluorobenzo[d][1,3]dioxol-5-yl)-6-(3-methoxypropyl)pyrazin-2-yl)azepane-4-carboxylic acid] |  | < 500
CCCCc1cnc(-c2ccc3[nH]ccc3c2)c(N2CCC(C(=O)O)CC2)n1 [Compound 5, 1-(6-Butyl-3-(1H-Indol-5-yl)Pyrazin-2-yl)Piperidine-4-Carboxylic Acid] | > 2000 | 
COCCCc1cnc(-c2cc(F)c3c(c2)OCO3)c(N2CCC(C(=O)O)CC2)n1 [Compound 190, 1-(3-(7-Fluorobenzo[d][1,3]dioxol-5-yl)-6-(3-Methoxypropyl)Pyrazin-2-yl)piperidine-4-carboxylic acid] |  | < 500

SMILES | IC50 [1] [nM] | IC50 [2] [nM]
COCCCCc1cnc(-c2ccc3c(c2)OCO3)c(N2CCC(C(=O)O)CC2)n1 [Compound 140, 1-(3-(benzo[d][1,3]dioxol-5-yl)-6-(4-methoxybutyl)pyrazin-2-yl)piperidine-4-carboxylic acid] | < 500 | 
COCCCc1cnc(-c2ccc3c(c2)OCO3)c(N2CC(C(=O)O)C2)n1 [Compound 176, 1-(3-(benzo[d][1,3]dioxol-5-yl)-6-(3-methoxypropyl)pyrazin-2-yl)azetidine-3-carboxylic acid] | > 2000 | 
COCCCc1cnc(-c2ccc3c(c2)OCO3)c(N2CC3(CC(C(=O)O)C3)C2)c1 [Compound 250, 2-(2-(benzo[d][1,3]dioxol-5-yl)-5-(3-methoxypropyl)pyridin-3-yl)-2-azaspiro[3.3]heptane-6-carboxylic acid] |  | > 2000
O=C(O)C1CCN(c2nc(CCC(F)(F)C(F)(F)F)cnc2-c2ccc3occc3c2)CC1 [Compound 124, 1-(3-(benzofuran-5-yl)-6-(3,3,4,4,4-pentafluorobutyl)pyrazin-2-yl)piperidine-4-carboxylic acid] | < 500 | 
O=C(O)C1CCN(c2nc(CCC(F)(F)F)cnc2-c2ccc(OCC3CC3)cc2)CC1 [Compound 152, 1-(3-(4-(cyclopropylmethoxy)phenyl)-6-(3,3,3-trifluoropropyl)pyrazin-2-yl)piperidine-4-carboxylic acid] | < 500 | 
CS(=O)(=O)NC(=O)C1CCN(c2nc(COCC(F)(F)F)cnc2-c2cc(F)c3occc3c2)CC1 [Compound 66, 1-(3-(7-fluorobenzofuran-5-yl)-6-((2,2,2-trifluoroethoxy)methyl)pyrazin-2-yl)-N-(methylsulfonyl)piperidine-4-carboxamide] | 500 to 2000 | 
COCCNc1ccc(-c2ncc(CCC(F)(F)F)nc2N2CCC(C(=O)O)CC2)cc1 [Compound 103, 1-(3-(4-((2-methoxyethyl)amino)phenyl)-6-(3,3,3-trifluoropropyl)pyrazin-2-yl)piperidine-4-carboxylic acid] | 500 to 2000 | 
O=C(O)C1CCN(c2nc(CCCOC(F)(F)F)cnc2-c2ccc3occc3c2)CC1 [Compound 151, 1-(3-(benzofuran-5-yl)-6-(3-(trifluoromethoxy)propyl)pyrazin-2-yl)piperidine-4-carboxylic acid] | < 500 | 
COCCCc1cnc(-c2cc(C(F)(F)F)nn2C)c(N2CCC(C(=O)O)CC2)n1 [Compound 201, 1-(6-(3-methoxypropyl)-3-(1-methyl-3-(trifluoromethyl)-1H-pyrazol-5-yl)pyrazin-2-yl)piperidine-4-carboxylic acid] |  | > 2000
O=C(O)C1CCN(c2nc(COCC(F)(F)F)cnc2-c2ccc(OCC3CC3)c(F)c2)CC1 [Compound 78, 1-(3-(4-(cyclopropylmethoxy)-3-fluorophenyl)-6-((2,2,2-trifluoroethoxy)methyl)pyrazin-2-yl)piperidine-4-carboxylic acid] | > 2000 | 
O=C(O)C1CCN(c2nc(CCC(F)(F)F)cnc2-c2ccc3c(c2)OC(F)(F)O3)CC1 [Compound 164, 1-(3-(2,2-difluorobenzo[d][1,3]dioxol-5-yl)-6-(3,3,3-trifluoropropyl)pyrazin-2-yl)piperidine-4-carboxylic acid] | 500 to 2000 | 
CCCCc1cnc(-c2ccc3cc[nH]c3c2)c(N2CCC(C(=O)O)CC2)n1 [Compound 17, 1-(6-Butyl-3-(1H-Indol-6-yl)Pyrazin-2-yl)Piperidine-4-Carboxylic Acid] | 500 to 2000 | 
COCCCc1cnc(-c2cc(F)c3occc3c2)c(N2CCC(C(=O)O)C(F)(F)C2)n1 (centres unmarked) [Compound 187, 3,3-difluoro-1-(3-(7-fluorobenzofuran-5-yl)-6-(3-methoxypropyl)pyrazin-2-yl)piperidine-4-carboxylic acid] |  | < 500
COCCCCc1cnc(-c2cc(F)c3occc3c2)c(N2CCC(C(=O)O)CC2)n1 [Compound 227, 1-(3-(7-fluorobenzofuran-5-yl)-6-(4-methoxybutyl)pyrazin-2-yl)piperidine-4-carboxylic acid] |  | < 500
COCCCc1cnc(-c2cc(F)c3occc3c2)c(N2CCC(C(=O)O)CC2)n1 [Compound 173, 1-(3-(7-Fluorobenzofuran-5-yl)-6-(3-Methoxypropyl)Pyrazin-2-yl)piperidine-4-carboxylic acid] | < 500 | < 500
COCCOc1ccc(-c2ncc(CCCC(F)(F)F)nc2N2CCC(O)(C(=O)O)CC2)cc1 [Compound 167, 4-hydroxy-1-(3-(4-(2-methoxyethoxy)phenyl)-6-(4,4,4-trifluorobutyl)pyrazin-2-yl)piperidine-4-carboxylic acid] | > 2000 | 
